{"source": "patent US20210386367A1", "about": "“DEVICES AND SYSTEMS FOR GASTROINTESTINAL MICROBIOME DETECTION AND MANIPULATION” (Progenity, Inc., priority 2018, published 2021)", "key": {"[1]": {"test_system": "E. coli, Streptococcus spp., and Bacteroides spp. isolates", "type": "cell-based", "details": "remaining isolates (E. coli, Streptococcus spp.)", "protocol": "Initial values of the MIC were determined by agar dilution in accordance with guidelines from the Clinical and Laboratory Standards Institute (CLSI; (1) “Methods for Dilution Antimicrobial Susceptibility Tests for Bacteria That Grow Aerobically; Approved Standard; 11th ed.,” CLSI standard M07, 2018; (2) “Methods for Antimicrobial Susceptibility Testing of Anaerobic Bacteria; Approved Standard—Eighth Edition,” CLSI document M11-A8, 2012.).\nIf there were no colonies on the antibiotic selection plates, the spontaneous mutation frequency was reported as less than the frequency observed with one colony to indicate that the spontaneous mutation frequency was less than the limit of detection (one CFU). […] The mutation prevention concentration (MPC) was reported as the lowest concentration for which no mutants were selected."}, "Escherichia coli": {"test_system": "Escherichia coli", "assay": "Broth microdilution MIC, 50 clinical isolates (incl. ESBL, one NDM-1)", "type": "cell-based", "protocol": "(§1) Minimal inhibitory concentration (MIC) values were determined by broth microdilution or agar dilution in accordance with guidelines from the Clinical and Laboratory Standards Institute (CLSI; (1) “Methods for Dilution Antimicrobial Susceptibility Tests for Bacteria That Grow Aerobically; Approved Standard; 11th ed.” CLSI standard M07-A11, 2018; (2) “Performance Standards for Antimicrobial Susceptibility Testing; Twenty-Eighth Informational Supplement,” CLSI document M100-S28, 2018; and (3) “Methods for Antimicrobial Susceptibility Testing of Anaerobic Bacteria; Approved Standard—Eighth Edition,” CLSI document M11-A8, 2012).\n(§2) Tested aerobically by broth microdilution: • Escherichia coli, n=50 • Klebsiella spp., n=50 • Pseudomonas aeruginosa, n=50 • Streptococcus spp., n=50 • Staphylococcus aureus, n=50 • Enterococcus faecalis, n=50 • Enterobacter aerogenes, n=50 • Proteus mirabilis, n=50\n(§3) Broth microdilution testing of aerobic bacteria was conducted in cation-adjusted Mueller Hinton broth (MHBII). For testing streptococci, lysed horse blood (LHB) was added to MHBII broth at a final concentration of 3%. Where LHB was used, it was added after filtering.\n(§4) Broth microdilution susceptibility testing in 96-well microplates was conducted in accordance with CLSI methods (1) and (2). Automated liquid handlers were used to conduct serial dilutions and liquid transfers, including the Multidrop 384 (Labsystems, Helsinki, Finland), Biomek 2000, and the Biomek FX (Beckman Coulter, Fullerton, Calif.). All wells in columns 2 through 12 of a standard 96-well microdilution plate (Costar 3795) were filled with 150 μL of the appropriate diluent. Then, 300 μL of the test agents were added to the wells of column 1 of the plates at 100× the highest final concentration to be tested. Serial two-fold dilutions were made across the rows through column 11 using the Biomek 2000. The wells of column 12 contained no drug and served as the growth control wells. This plate served as the “mother plate” from which MIC assay plates or “daughter plates” were made.\n(§5) The daughter plates were loaded with 190 μL per well of the appropriate medium using the Multidrop 384. The daughter plates were created using the Biomek FX which transferred 2 μL of drug solution from each well of a mother plate to each corresponding well of the daughter plate in a single step. A standardized inoculum of each test organism was prepared per CLSI methods (1) to equal a 0.5 McFarland standard, followed by a dilution of 1:20 for aerobes and 1:10 for anaerobes. The plates were then inoculated with 10 μL of the diluted inoculum using the Biomek 2000 from low to high drug concentration, resulting in a final concentration of approximately 5×10^5 CFU/mL per well. An un-inoculated plate was incubated in parallel for each medium for the purpose of assessing solubility of the drug in the test media.\n(§6) Inoculated plates were stacked 3 or 4 high, covered with a sterile lid on the top plate, placed into boxes with CO2 planchets (streptococci) or plastic bags (all other isolates). Plates were incubated at 35° C. for 16-24 hr in ambient air for aerobes or for 42-48 hr in the anaerobic environment of the Bactron II anaerobe chamber (Sheldon Manufacturing Co.; Cornelius, Oreg.). Following incubation, the microplates were removed from the incubator and viewed from the bottom using a plate viewer. The MIC values were read and recorded as the lowest concentration of drug that inhibited visible growth of the organism as per CLSI methods (1) and (2)."}, "B. vulgatus ATCC 8482": {"test_system": "B. vulgatus ATCC 8482", "assay": "Time-kill assay", "type": "cell-based, Bacteroides vulgatus", "details": "2×, 4×, 8× MIC; 2, 6, 24, 48 hr"}, "E. coli MMX 1312": {"test_system": "E. coli MMX 1312", "assay": "Broth microdilution MIC (time-kill study)", "type": "cell-based, Escherichia coli"}, "Klebsiella spp.": {"test_system": "Klebsiella spp.", "assay": "Broth microdilution MIC, 50 clinical isolates (20 K. oxytoca, 30 K. pneumoniae)", "type": "cell-based", "protocol": "as §1, §2, §3, §4, §5, §6"}, "Bacteroides non fragilis": {"test_system": "Bacteroides non fragilis", "assay": "Agar dilution MIC, 29 clinical isolates", "type": "cell-based, Bacteroides spp."}, "[2]": {"test_system": "E. coli ATCC 35218 (TEM-1 β-lactamase producer)", "assay": "Broth microdilution MIC (time-kill study)", "type": "cell-based, Escherichia coli"}, "[3]": {"details": "29 Bacteroides non-fragilis clinical isolates"}}, "note": "Read-outs that look alike come from different tables or passages of the source.", "data": [{"smiles": "CO/N=C(\\C(=O)N[C@@H]1C(=O)N2C(C(=O)O)=C(CSc3nc(=O)c(=O)[nH]n3C)CS[C@H]12)c1csc(N)n1", "note": "[ceftriaxone]", "values": [{"measurement": "overall MPC values", "setting": "[1]", "result": "0.12 to 0.25", "unit": "µg/mL"}, {"measurement": "% R", "setting": "Escherichia coli", "result": "Thirty-six"}, {"measurement": "% S", "setting": "Escherichia coli", "result": 64, "unit": "%"}, {"measurement": "Mode", "setting": "Escherichia coli", "result": 0.03, "unit": "µg/mL"}, {"measurement": "Cumulative percentage of isolates inhibited at MIC", "setting": "Escherichia coli; 0.008 μg/mL", "result": 2.0, "unit": "%"}, {"measurement": "Number of test isolates at MIC", "setting": "Escherichia coli; 0.008 μg/mL", "result": 1}, {"measurement": "Cumulative percentage of isolates inhibited at MIC", "setting": "Escherichia coli; 0.015 μg/mL", "result": 1.0, "unit": "%"}, {"measurement": "Number of test isolates at MIC", "setting": "Escherichia coli; 0.015 μg/mL", "result": 1}, {"measurement": "Cumulative percentage of isolates inhibited at MIC", "setting": "Escherichia coli; 0.03 μg/mL", "result": 42.0, "unit": "%"}, {"measurement": "Number of test isolates at MIC", "setting": "Escherichia coli; 0.03 μg/mL", "result": 19}, {"measurement": "Cumulative percentage of isolates inhibited at MIC", "setting": "Escherichia coli; 0.06 μg/mL", "result": 58.0, "unit": "%"}, {"measurement": "Number of test isolates at MIC", "setting": "Escherichia coli; 0.06 μg/mL", "result": 8}, {"measurement": "Cumulative percentage of isolates inhibited at MIC", "setting": "Escherichia coli; 8 μg/mL", "result": 68.0, "unit": "%"}, {"measurement": "Number of test isolates at MIC", "setting": "Escherichia coli; 8 μg/mL", "result": 2}, {"measurement": "Cumulative percentage of isolates inhibited at MIC", "setting": "Escherichia coli; 16 μg/mL", "result": 72.0, "unit": "%"}, {"measurement": "Number of test isolates at MIC", "setting": "Escherichia coli; 16 μg/mL", "result": 2}, {"measurement": "Cumulative percentage of isolates inhibited at MIC", "setting": "Escherichia coli; 64 μg/mL", "result": 76.0, "unit": "%"}, {"measurement": "Number of test isolates at MIC", "setting": "Escherichia coli; 64 μg/mL", "result": 2}, {"measurement": "Cumulative percentage of isolates inhibited at MIC", "setting": "Escherichia coli; >128 μg/mL", "result": 100.0, "unit": "%"}, {"measurement": "Number of test isolates at MIC", "setting": "Escherichia coli; >128 μg/mL", "result": 12}, {"measurement": "MIC90", "setting": "Escherichia coli; Escherichia coli", "result": "> 128", "unit": "µg/mL"}, {"measurement": "MIC50", "setting": "Escherichia coli; Escherichia coli, read-out: MIC50", "result": 0.06, "unit": "µg/mL"}, {"measurement": "Cumulative percentage of isolates inhibited at MIC", "setting": "Escherichia coli; […]", "result": 64.0, "unit": "%"}, {"measurement": "Number of test isolates at MIC", "setting": "Escherichia coli; […]", "result": 3}, {"measurement": "% R", "setting": "Escherichia coli; listed as CTR", "result": 36, "unit": "%"}, {"measurement": "MIC90", "setting": "Escherichia coli; listed as CTR", "result": ">128", "unit": "µg/mL"}, {"measurement": "time-kill kinetics outcome (bactericidal = ≥3 log reduction in CFU per mL)", "setting": "B. vulgatus ATCC 8482", "result": "bactericidal effect was observed at 8×MIC at 6, 24 and 48 hr; at 4×MIC at 6 and 24 hr; and at 2×MIC at 48 hr"}, {"measurement": "MIC", "setting": "E. coli MMX 1312; E. coli MMX 1312", "result": 4, "unit": "µg/mL"}, {"measurement": "MIC", "setting": "E. coli MMX 1312; Escherichia coli, MMX1312, broth microdilution, read-out: MIC", "result": 4, "unit": "µg/mL"}, {"measurement": "% I", "setting": "Klebsiella spp.", "result": 6, "unit": "%"}, {"measurement": "% R", "setting": "Klebsiella spp.", "result": 28, "unit": "%"}, {"measurement": "% S", "setting": "Klebsiella spp.", "result": 66, "unit": "%"}, {"measurement": "Mode", "setting": "Klebsiella spp.", "result": 0.06, "unit": "µg/mL"}, {"measurement": "Cumulative percentage of isolates at MIC", "setting": "Klebsiella spp.; 0.015 μg/mL", "result": 2.0, "unit": "%"}, {"measurement": "Number of test isolates at MIC", "setting": "Klebsiella spp.; 0.015 μg/mL", "result": 1}, {"measurement": "Cumulative percentage of isolates at MIC", "setting": "Klebsiella spp.; 0.03 μg/mL", "result": 12.0, "unit": "%"}, {"measurement": "Number of test isolates at MIC", "setting": "Klebsiella spp.; 0.03 μg/mL", "result": 5}, {"measurement": "Cumulative percentage of isolates at MIC", "setting": "Klebsiella spp.; 0.06 μg/mL", "result": 14.0, "unit": "%"}, {"measurement": "Number of test isolates at MIC", "setting": "Klebsiella spp.; 0.06 μg/mL", "result": 16}, {"measurement": "Cumulative percentage of isolates at MIC", "setting": "Klebsiella spp.; 0.5 μg/mL", "result": 64.0, "unit": "%"}, {"measurement": "Number of test isolates at MIC", "setting": "Klebsiella spp.; 0.5 μg/mL", "result": 1}, {"measurement": "Cumulative percentage of isolates at MIC", "setting": "Klebsiella spp.; 1 μg/mL", "result": 66.0, "unit": "%"}, {"measurement": "Number of test isolates at MIC", "setting": "Klebsiella spp.; 1 μg/mL", "result": 1}, {"measurement": "Cumulative percentage of isolates at MIC", "setting": "Klebsiella spp.; 2 μg/mL", "result": 72.0, "unit": "%"}, {"measurement": "Number of test isolates at MIC", "setting": "Klebsiella spp.; 2 μg/mL", "result": 3}, {"measurement": "Cumulative percentage of isolates at MIC", "setting": "Klebsiella spp.; 8 μg/mL", "result": 76.0, "unit": "%"}, {"measurement": "Number of test isolates at MIC", "setting": "Klebsiella spp.; 8 μg/mL", "result": 2}, {"measurement": "Cumulative percentage of isolates at MIC", "setting": "Klebsiella spp.; 32 μg/mL", "result": 80.0, "unit": "%"}, {"measurement": "Number of test isolates at MIC", "setting": "Klebsiella spp.; 32 μg/mL", "result": 2}, {"measurement": "Cumulative percentage of isolates at MIC", "setting": "Klebsiella spp.; >128 μg/mL", "result": 100.0, "unit": "%"}, {"measurement": "Number of test isolates at MIC", "setting": "Klebsiella spp.; >128 μg/mL", "result": 10}, {"measurement": "MIC90", "setting": "Klebsiella spp.; Klebsiella", "result": "> 128", "unit": "µg/mL"}, {"measurement": "MIC50", "setting": "Klebsiella spp.; Klebsiella, read-out: MIC50", "result": 0.12, "unit": "µg/mL"}, {"measurement": "% I", "setting": "Klebsiella spp.; listed as CTR", "result": 6, "unit": "%"}, {"measurement": "% R", "setting": "Klebsiella spp.; listed as CTR", "result": 28, "unit": "%"}, {"measurement": "MIC90", "setting": "Klebsiella spp.; listed as CTR", "result": ">128", "unit": "µg/mL"}, {"measurement": "isolates resistant", "setting": "Bacteroides non fragilis", "result": 72, "unit": "%"}, {"measurement": "isolates with intermediate resistance", "setting": "Bacteroides non fragilis", "result": 3, "unit": "%"}, {"measurement": "% I", "setting": "Bacteroides non fragilis; [3]", "result": 3, "unit": "%"}, {"measurement": "% R", "setting": "Bacteroides non fragilis; [3]", "result": 72, "unit": "%"}, {"measurement": "% S", "setting": "Bacteroides non fragilis; [3]", "result": 24, "unit": "%"}, {"measurement": "MIC50", "setting": "Bacteroides non fragilis; [3]", "result": ">128", "unit": "µg/mL"}, {"measurement": "MIC90", "setting": "Bacteroides non fragilis; [3]", "result": ">128", "unit": "µg/mL"}, {"measurement": "MIC range", "setting": "Bacteroides non fragilis; [3]", "result": "1 to 128", "unit": "µg/mL"}, {"measurement": "MIC50", "setting": "Bacteroides non fragilis; Bacteroides, read-out: MIC50", "result": "> 128", "unit": "µg/mL"}, {"measurement": "MIC90", "setting": "Bacteroides non fragilis; Bacteroides, read-out: MIC90", "result": "> 128", "unit": "µg/mL"}, {"measurement": "Mode", "setting": "Bacteroides non fragilis; modal MIC, 29 Bacteroides non-fragilis clinical isolates", "result": ">128", "unit": "µg/mL"}, {"measurement": "MIC", "setting": "[2]; E. coli ATCC 35218", "result": 0.03, "unit": "µg/mL"}, {"measurement": "MIC", "setting": "[2]; Escherichia coli, ATCC35218", "result": 0.03, "unit": "µg/mL"}]}]}
